Columns and labels:
Assay in all cases: relative viability (nuclei count vs DMSO), 5 days (fraction); higher = more cells survive
XMD13-2 + Olaparib = compound: C1CC1C(=O)NC2=NNC3=C2C=CC(=C3)C4=CC(=CC=C4)C(=O)NC5CC5 [XMD13-2] + O=C(c1cc(Cc2n[nH]c(=O)c3ccccc23)ccc1F)N1CCN(C(=O)C2CC2)CC1 [Olaparib] (partner 8 µM)
In short: (§1)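 After 5 days of treatment, lung cancer cells in 1536-well plates were fixed and stained in a single step (final 0.05% Triton X-100, 1% formaldehyde, 1 ug/ml Hoechst) and their nuclei counted on 4× images. Treatment had been applied by pin tool the day after seeding as one drug alone or as a fixed anchor-drug dose with five library-drug doses (not always all listed) in √10 steps. Relative viability is the nuclei count of treated wells divided by that of vehicle wells, and values are medians of duplicate plates.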

ALW-II-49-7 + Olaparib = compound: Cc1ccc(C(=O)Nc2cccc(C(F)(F)F)c2)cc1Nc1cncc(C(N)=O)c1 [ALW-II-49-7] + O=C(c1cc(Cc2n[nH]c(=O)c3ccccc23)ccc1F)N1CCN(C(=O)C2CC2)CC1 [Olaparib] (partner 8 µM)
In short: as §1

XMD13-2 + Luminespib = compound: C1CC1C(=O)NC2=NNC3=C2C=CC(=C3)C4=CC(=CC=C4)C(=O)NC5CC5 [XMD13-2] + CCNC(=O)c1noc(-c2cc(C(C)C)c(O)cc2O)c1-c1ccc(CN2CCOCC2)cc1 [Luminespib] (partner 0.01 µM)
In short: as §1

Cell Line	relative viability (XMD13-2 + Olaparib; first compound 0.05 µM)	relative viability (XMD13-2 + Olaparib; first compound 0.5 µM)	relative viability (XMD13-2 + Olaparib; first compound 1.581 µM)	relative viability (XMD13-2 + Olaparib; first compound 5 µM)	relative viability (ALW-II-49-7 + Olaparib; first compound 0.08 µM)	relative viability (ALW-II-49-7 + Olaparib; first compound 0.253 µM)	relative viability (ALW-II-49-7 + Olaparib; first compound 0.8 µM)	relative viability (ALW-II-49-7 + Olaparib; first compound 2.53 µM)	relative viability (ALW-II-49-7 + Olaparib; first compound 8 µM)	relative viability (XMD13-2 + Olaparib; first compound 0.1581 µM)	relative viability (XMD13-2 + Luminespib; first compound 0.05 µM)	relative viability (XMD13-2 + Luminespib; first compound 0.1581 µM)	relative viability (XMD13-2 + Luminespib; first compound 0.5 µM)	relative viability (XMD13-2 + Luminespib; first compound 1.581 µM)	relative viability (XMD13-2 + Luminespib; first compound 5 µM)
NCI-H1648	0.983	0.841	0.762	0.509	1.52	0.684	0.656	0.48	0.808	–	–	–	–	–	–
A549	0.415	0.453	0.358	0.437	0.407	0.368	0.222	0.344	0.263	0.185	–	–	–	–	–
SK-MES-1	0.906	0.804	0.73	0.761	0.548	0.815	0.746	0.527	0.418	0.646	1.06	0.67	0.773	0.711	0.556
EKVX	0.984	0.907	–	0.907	0.77	0.847	0.823	0.374	0.855	0.871	0.978	0.887	0.982	0.906	0.738
RERF-LC-KJ	0.971	0.928	0.983	0.985	0.988	1.06	0.874	0.856	0.725	0.917	1.32	1.29	1.22	1.14	1.1
NCI-H1755	0.878	0.94	0.91	0.84	0.888	0.942	0.913	0.798	0.627	0.892	0.441	0.502	0.419	0.44	0.433

— the supplement of paper PMC10307832
